In US8841420B2, “Synthetic peptide constructs for the diagnosis and treatment of periodontis associated with Porphyromonas gingivalis” (priority 1997, dated 2014):
No end group written: not given here.

How the values were obtained:
[1] = biological target: T1, PrtRII50 Arg-specific proteinase (Porphyromonas gingivalis, UniProt P95493); format: biochemical, Porphyromonas gingivalis W50; details: inhibition at similar concentrations to that which inhibited the PrtR45
T1 construct: made in house; host or cells: Porphyromonas gingivalis W50 (native enzyme purified from cell sonicate, not recombinant)
T1 sequence (P95493 230-736): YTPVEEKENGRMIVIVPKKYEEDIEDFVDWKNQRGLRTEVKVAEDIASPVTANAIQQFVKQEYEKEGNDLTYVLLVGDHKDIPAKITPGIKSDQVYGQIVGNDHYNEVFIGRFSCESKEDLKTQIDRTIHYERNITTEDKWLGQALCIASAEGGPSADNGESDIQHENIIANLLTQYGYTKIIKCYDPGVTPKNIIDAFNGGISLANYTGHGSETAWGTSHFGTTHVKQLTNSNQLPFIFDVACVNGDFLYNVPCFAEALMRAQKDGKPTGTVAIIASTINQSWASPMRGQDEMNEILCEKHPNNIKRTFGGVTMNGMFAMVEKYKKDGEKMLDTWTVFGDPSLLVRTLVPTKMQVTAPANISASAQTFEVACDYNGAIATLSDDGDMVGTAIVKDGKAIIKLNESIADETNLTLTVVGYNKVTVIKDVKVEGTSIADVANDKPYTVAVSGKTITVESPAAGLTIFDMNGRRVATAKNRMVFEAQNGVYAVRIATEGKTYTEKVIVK
Description: P. gingivalis W50 was grown in batch culture (5 L) and harvested at late logarithmic phase by centrifugation (5,000×g, 20 min, 4° C.). Cells were washed once with 150 ml TC buffer (20 mM Tris-HCl pH 7.4 and 5 mM CaCl2) containing 50 mM NaCl and sonicated as described previously (Bhogal et al., 1997). The sonicate was centrifuged (100,000×g, 30 min, 4° C.) and the supernatant filtered (0.22 μm) prior to anion-exchange FPLC. The sonicate was applied to an anion-exchange column (Hiload XK 16/10 Q Sepharose, Pharmacia-LKB) cooled to 4° C., in multiple injections using a 50 ml superloop (Pharmacia-LKB). The sonicate was eluted using a linear gradient from 0-100% buffer B over 90 min at a flow rate of 2.0 ml min^−1. Absorbance was monitored at 280 nm and elutant collected at 4° C. in 6 ml fractions using a Frac 100 fraction collector (Pharmacia-LKB). Buffer A was TC buffer containing 50 mM NaCl and buffer B was TC buffer containing 500 mM NaCl. Fractions were analysed for proteolytic and amidolytic activity using azocasein (A-2765, Sigma Chemical Co. St Louis, Mo.), benzoyl-L-Arg-p-nitroanilide (Bz-L-Arg-pNA, Sigma) and benzyloxycarbonyl-L-Lys-p-nitroanilide (z-L-Lys-pNA, Calbiochem, Melbourne, Australia) as described previously (Bhogal et al., 1997) except that fractions were pre-incubated with 10 mM cysteine for 10 min at 25° C. before the addition of substrate. For the amidolytic assays absorbance was monitored at 410 nm as previously described (Bhogal et al., 1997) and the amidolytic activity expressed as U where U=μmol substrate converted min^−1 at 25° C. Anion-exchange fractions eluting between 160-246 mM NaCl containing the highest ratio of Arg-specific to Lys-specific activity were, washed and concentrated in TC buffer containing 150 mM NaCl using a centripep and centricon 10 concentrators (Amicon) and applied to a gel filtration column (Superose 12, HR 10/30, Pharmacia-LKB) using TC buffer containing 150 mM NaCl at a flow rate of 0.3 ml min^−1. Absorbance was monitored at 280 nm and fractions collected at 4° C. using a Frac 100 fraction collector. The Mr values of eluant peaks were determined using gel filtration molecular mass standards (Pharmacia-LKB). The peak eluting at 50 kDa containing only Arg-specific amidolytic activity was washed in TC buffer containing 50 mM NaCl using a centricon-10 concentrator (Amicon) and applied to a Mono Q (HR 5/5) anion-exchange column using a 5 ml loop and eluted using a linear gradient of 0-100% buffer B at a flow rate 1.0 ml min^−. Buffer A was TC buffer containing 150 mM NaCl, buffer B was TC buffer containing 500 mM NaCl. Absorbance was monitored at 280 nm and fractions collected at 4° C. using a Frac 100 fraction collector.

[2] = tested on: Porphyromonas gingivalis strain 33277; assay: Murine lesion (abscess) model, immunisation then P. gingivalis challenge; format: in vivo, BALB/c mice; details: for Maximum lesion size: BALB/c mice immunised s.c. with 50 μg antigen (or 2×10^9 killed cells) in CFA then IFA, s.c. challenge 8×10^9 cells, measured over 10 days; for protection against P. gingivalis challenge (lesion size), in words: relative to DT or adjuvant alone controls
Description: BALB/c mice (6 per group) were inoculated (s.c.) with 50 μg of antigen emulsified in CFA and IFA for the primary and secondary inoculations and then challenged (s.c.) with 8×10^9 cells of P. gingivalis strain 33277.
BALB/c mice 6-8 weeks old were immunised subcutaneously with either 50 μg of the peptide-DT conjugate, 50 μg of DT or 2×10^9 formalin killed cells of Porphyromonas gingivalis strain 33277 emulsified in complete Freund's adjuvant (CFA). After 30 days the mice were injected subcutaneously with antigen (either 50 μg of the peptide-DT conjugate, 50 μg of DT or 2×10^9 formalin killed cells of Porphyromonas gingivalis strain 33277) emulsified in incomplete Freund's adjuvant (IFA) and then bled from the retrobulbar plexus 12 days later. All mice were challenged with 8×10^9 cells of P. gingivalis (200 μL) by subcutaneous injection in the abdomen and weighed and lesion size measured over 10 days. Lesion sizes are expressed as mm^2 and were statistically analysed using a Kruskal-Wallis one-way ANOVA and Mann-Whitney U-Wilcoxon rank sum W test.

[3] = tested on: TLCK-inactivated PrtR-PrtK proteinase-adhesin complex; assay: Competitive binding assay (ELISA, ABM peptide-coated plates); set-up: species or system Porphyromonas gingivalis W50; details: for inhibition of binding of the TLCK-inactivated PrtR-PrtK complex to the adsorbed ABM peptide: competitor in solution; for binding of the PrtR-PrtK complex to the substance: TLCK-inactivated complex
Description: Competitive Binding Assay
Wells of flat-bottomed polyvinyl microtitre plates (Microtitre, Dynatech Laboratories, VA) were coated overnight at 4° C. using a solution (5 mg/ml) of the adhesin binding motif (ABM) peptide in 0.1M phosphate buffered saline, pH 7.4, containing 0.1% v/v Tween 20 (PBST) and 0.1% w/v sodium azide. After removal of the coating solution, 2% w/v skim milk powder in PEST was added to block the remaining uncoated plastic for 1 hour at room temperature and then washed (4×PBST). A solution (1 mg/ml) of the PrtR-PrtK proteinase-adhesion complex (inactivated with 1 mM TLCK) was incubated with known concentrations of ABM peptide, control peptide and casein for 1 hour and then transferred to the microtitre plates coated with the ABM peptide. Following incubation for 2 hours at 37° C. the plates were washed (5×PBST). A 1/10,000 dilution of rabbit anti-PrtR-PrtK antisera in PBST containing 1% w/v skim milk powder was then added to the washed wells and incubated for 2 hours at 37° C. Bound antibody was detected by incubation with horseradish peroxidase-conjugated goat immunoglobulin (Ig) directed against rabbit Ig (BioRad, Richmond, Calif.) for 1.5 hours at 37° C. After washing (5×PBST), substrate (0.4 mM 3,3′,5,5′-tetramethylbenzidine in 0.1M sodium acetate/citric acid buffer containing 0.004% v/v hydrogen peroxide) was added and colour development was stopped by addition of 2M H2SO4. Optical density (O.D.) at 450 nm was measured using a BioRad microplate reader model 450.

Compound | effect on activity of the Arg-specific 50 kDa enzyme [1] | Maximum lesion size [2] | further results
NCCc1ccc(S(=O)(=O)F)cc1 [4-(2-aminoethyl)-benzenesulfonyl fluoride] | not inhibited |  | 
O=C(O)CN(CCN(CC(=O)O)CC(=O)O)CC(=O)O [EDTA] | inhibited |  | 
N[C@@H](CS)C(=O)O [cysteine] | activated |  | 
CC(=O)N[C@@H](CC(C)C)C(=O)N[C@@H](CC(C)C)C(=O)N[C@H](C=O)CCCNC(=N)N [leupeptin] | inhibited |  | 
O=S(=O)(F)Cc1ccccc1 [phenylmethyl sulfonyl fluoride] | not inhibited |  | 
ABM3 (K44)-OT: ABM3 (R44) peptide (SEQ ID NO: 98) conjugated to diphtheria toxoid (VTLKWDAPNGTPNPNPNPNPNPNPGTTTLSESF-NH2; not fully specified (N-terminus); also: conjugated to diphtheria toxoid; listed as Porphyromonas gingivalis) |  | 12.27 mm^2 | 
ABM4 (K44)-DT: ABM4 (K44) peptide (SEQ ID NO: 35) conjugated to diphtheria toxoid (WIERTVDLPAGTKYVAFRHY-NH2; not fully specified (N-terminus); also: conjugated to diphtheria toxoid; listed as Porphyromonas gingivalis) |  | 18.83 mm^2 | 
ABM5 (R15)-DT: ABM5 (R15) peptide (SEQ ID NO: 50) conjugated to diphtheria toxoid (PAEWTTIDADGDGQGW-NH2; not fully specified (N-terminus); also: conjugated to diphtheria toxoid; listed as Porphyromonas gingivalis) |  | 14.79 mm^2 | 
Control peptide-DT: Control peptide PrtR27 (1432-1463) (SEQ ID NO: 97) conjugated to diphtheria toxoid (ANEAKVVLAADNVWGDNTGYQFLLDADHNTFG; also: conjugated to diphtheria toxoid; listed as Porphyromonas gingivalis) [reference compound] |  | 36.61 mm^2 | protection against P. gingivalis challenge (lesion size), in words [2]: did not provide protection
Diphtheria Toxoid [DT, reference compound] |  | 33.59 mm^2 | protection against P. gingivalis challenge (lesion size), in words [2]: does not provide protection
FNGGISLANYTGHGSETAWGT (listed as Porphyromonas gingivalis) [PAS1 (R45)] |  |  | inhibition of binding of the TLCK-inactivated PrtR-PrtK complex to the adsorbed ABM peptide ([3]; FIG. 10): did not inhibit
PAS1 (R45)-DT: PAS1 (R45) peptide (SEQ ID NO: 1) conjugated to diphtheria toxoid (FNGGISLANYTGHGSETAWGT; also: conjugated to diphtheria toxoid; listed as Porphyromonas gingivalis) |  | 10.46 mm^2 | protection against P. gingivalis challenge (lesion size), in words [2]: Significantly reduced lesion size
PYQPVSNLTATTQGQKVTLKWDAPSTK [ABM1 (R45)] |  |  | molar excess of peptide in solution required to inhibit binding of the complex to the ABM peptide adsorbed onto the microtitre plate ([3]; TLCK-inactivated PrtR-PrtK complex 1 mg/ml, FIG. 10): 5-100 fold; binding of the PrtR-PrtK complex to the substance [3]: Specific binding
casein [reference compound] |  |  | binding of the PrtR-PrtK complex to the substance [3]: lack of binding; inhibition of binding of the TLCK-inactivated PrtR-PrtK complex to the adsorbed ABM peptide ([3]; FIG. 10): did not inhibit
